# Data reported in ChEMBL document CHEMBL1201862, “PubChem BioAssay data set” (2004).
#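 Results reflect a 48-hour exposure of cells in 96-well plates to compound at five concentrations. GI50 is the concentration that inhibits growth by half.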 Activity calls are given as the source filed them. No stated cut-off is given here; in the data, active = GI50 up to about 1.1 µM and inactive = higher.
# Tests used:
# Assay in all cases: DTP human tumour cell line panel, 48 h
# [1] = system: A498
# [2] = system: CAKI-1
# [3] = system: EKVX
# [4] = system: HCT-15
# [5] = system: KM12
# [6] = system: M14
# [7] = system: MCF7
# [8] = system: MOLT-4
# [9] = system: Malme-3M
# [10] = system: NCI-H226
# [11] = system: NCI-H460
# [12] = system: NCI/ADR-RES
# [13] = system: OVCAR-4
# [14] = system: OVCAR-8
# [15] = system: SK-MEL-2
# [16] = system: U-251
# [17] = system: HOP-62
# [18] = system: OVCAR-3
# [19] = system: SF-295
SMILES,GI50 [1],GI50 [2],GI50 [3],GI50 [4],GI50 [5],GI50 [6],GI50 [7],GI50 [8],GI50 [9],GI50 [10],GI50 [11],GI50 [12],GI50 [13],GI50 [14],GI50 [15],GI50 [16],GI50 [17],GI50 [18],GI50 [19]
NNc1nc2ccccc2s1,> 100 µM (inactive),> 100 µM (inactive),> 100 µM (inactive),> 100 µM,> 100 µM (inactive),> 100 µM (inactive),> 100 µM (inactive),37.3 µM (inactive),> 100 µM (inactive),> 100 µM (inactive),> 100 µM (inactive),> 100 µM (inactive),> 100 µM (inactive),> 100 µM (inactive),> 100 µM (inactive),> 100 µM (inactive),,,
CCn1c2ccccc2c2cc(NC(=O)c3c(C)[nH]c(=O)[nH]c3=S)ccc21,> 100 µM (inactive),> 100 µM (inactive),,41.2 µM,18.5 µM (inactive),24.2 µM (inactive),49.4 µM (inactive),24.3 µM (inactive),49.4 µM (inactive),33 µM (inactive),58.3 µM (inactive),> 100 µM (inactive),> 100 µM (inactive),> 100 µM (inactive),51.3 µM (inactive),31.5 µM (inactive),77.8 µM (inactive),35.7 µM (inactive),61.4 µM (inactive)
C1=Cc2nccc3cc4c(c(c23)N1)OCO4,21.6 µM (inactive),8.99 µM (inactive),9.55 µM (inactive),13.9 µM,6.73 µM (inactive),18.4 µM (inactive),2.32 µM (inactive),1.39 µM (inactive),9.23 µM (inactive),11.4 µM (inactive),4.36 µM (inactive),12.2 µM (inactive),7.45 µM (inactive),3.93 µM (inactive),13.3 µM (inactive),13.5 µM (inactive),7.62 µM (inactive),10.9 µM (inactive),3.36 µM (inactive)
C1CCC(OC2CSC2)OC1 (stereo not given),> 100 µM (inactive),,,> 100 µM,> 100 µM (inactive),> 100 µM (inactive),> 100 µM (inactive),> 100 µM (inactive),,> 100 µM (inactive),> 100 µM (inactive),> 100 µM (inactive),> 100 µM (inactive),> 100 µM (inactive),,> 100 µM (inactive),,> 100 µM (inactive),> 100 µM (inactive)
CCc1cc(=O)n(/C(C)=C/c2ccccc2)n1C,,> 100 µM (inactive),> 100 µM (inactive),,> 100 µM (inactive),> 100 µM (inactive),> 100 µM (inactive),> 100 µM (inactive),,> 100 µM (inactive),> 100 µM (inactive),> 100 µM (inactive),> 100 µM (inactive),> 100 µM (inactive),> 100 µM (inactive),> 100 µM (inactive),> 100 µM (inactive),> 100 µM (inactive),> 100 µM (inactive)
COc1cc2ccnc3c2c(c1OC)N(C)C=C3,36.1 µM (inactive),21.3 µM (inactive),23.2 µM (inactive),26.9 µM,25.9 µM (inactive),26.3 µM (inactive),16.6 µM (inactive),30 µM (inactive),,21.2 µM (inactive),14.6 µM (inactive),24.3 µM (inactive),24.5 µM (inactive),26.5 µM (inactive),23.1 µM (inactive),35.2 µM (inactive),28.3 µM (inactive),29.4 µM (inactive),20.2 µM (inactive)
C#CC(C)(C)Oc1cc(OC)c2c(=O)c3ccccc3n(C)c2c1,,,20.9 µM (inactive),10.9 µM,10.9 µM (inactive),,20.1 µM (inactive),3.85 µM (inactive),,16.6 µM (inactive),13.5 µM (inactive),13.8 µM (inactive),7.8 µM (inactive),15.4 µM (inactive),16.3 µM (inactive),30.3 µM (inactive),27 µM (inactive),,19.5 µM (inactive)
